{"source": "paper PMC8347512", "about": "“Synthesis and Biological Assessment of 4,1-Benzothiazepines with Neuroprotective Activity on the Ca^2+ Overload for the Treatment of Neurodegenerative Diseases and Stroke” (Molecules, 2021)", "key": {"[1]": {"assay": "Blood-brain barrier permeation assay (PAMPA), porcine brain lipid", "format": "in vitro ADME", "conditions": "pH 7.4, threshold value of 40 nm/s, read-out: Pe, in vitro permeability (PAMPA-BBB)", "protocol": "The parallel artificial membrane permeation assay (PAMPA) was used to predict the capacity of compounds to cross the blood–brain barrier (BBB) by passive diffusion, in a similar manner as previously described. Compounds were dissolved in 10 mM phosphate-buffered saline (PBS) buffer (pH 7.4) to the concentration of 100 µM. The filter membrane of the donor 96-well plate (Multiscreen IP sterile clear plate PDVF membrane, pore size […]) was impregnated with 4 µL of porcine brain lipid (PBL) (Avanti Polar Lipids, Inc., Alabaster, AL, USA) in dodecane (20 mg/mL), and after 5 min, 180 µL of each compound solution was added. The acceptor 96-well plate (Multiscreen, Millipore Corp. Burlington, MA, USA) was filled with 180 µL of PBS and 1% of DMSO. Finally, the donor filter plate was carefully put on the acceptor plate to form a “sandwich”, which was left undisturbed for 4 h at rt. After incubation, an UV plate reader determined the concentration of compounds in both acceptor and donor wells (150 µL/well) as the maximum absorption wavelength of each compound. Concentration of the compounds in the donor and acceptor well, and equilibrium concentration were calculated from the standard curve and expressed as the permeability (Pe), according to the following formula: logPe=logC×−ln1−drugacceptor/drugequilibrium whereC=Vdonor×Vaceptor/Vdonor+Vaceptor×Area×Time)\nResults are expressed as mean ± SEM of three different experiments in duplicate."}, "SH-SY5Y cells [2]": {"system": "SH-SY5Y cells", "assay": "Neuroprotection against rotenone/oligomycin A (R/O), MTT, SH-SY5Y cells", "format": "cell-based", "conditions": "R/O 30/10 μM, compounds 10 μM", "protocol": "(§1) The neuroblastoma SH-SY5Y cell line was obtained from the American Type Culture Collection (ATCC-CRL-2266), maintained and cultured in a 1:1 mixture of MEM and F12 media with 10% of fetal bovine serum (FBS), according to procedures previously described. For fluorescence-based [Ca^2+]c measurements, SH-SY5Y cells were seeded in clear-bottomed, 96-well black plates at a density of 40,000 cells/well. For viability assays, SH-SY5Y cells were seeded in 48-well plates at a density of 70,000 cells/well following the procedure recently reported. Rat cortical embryonic neurons were prepared from 19-day-old embryos directly seeded in the plate well treated with poly-D-lysine in neurobasal medium (Gibco 21103, Madrid, Spain) supplemented with 1% of L-glutamine (Sigma, G6392), 0.5% of penicillin/streptomycin and 0.1% of gentamincine. In fluorescence-based [Ca^2+]c measurement, neurons were seed at clear-bottomed, 96-well black plates at a density of 30,000 cells/well. For viability assays, the rat cortical neurons were also seeded in 48-well plates at a density of 40,000 cells/well. All the biological assays were conducted under sterile conditions.\n(§2) The effect of compounds on the SH-SY5Y cells and rat cortical neurons viability compromised of different toxics was also evaluated by method of MTT reduction. Twenty-four hours after seeding, SH-SY5Y cells were preincubated with compounds at the concentration of 10 μM for 24 h. Afterwards, MEM/F12 medium was replaced by one fresh with 1% FBS, compounds at the same concentration, and rotenone/oligomycin A administered to media at the concentration of 30/10 μM, respectively. The cultures’ viability was measured 20 h later, following the MTT procedure recently described. As reference neuroprotective compound, melatonin 10 nM was selected. In the case of the rat cortical neurons, 7 days after seeding in 48-well plates, neurons were preincubated adding the compounds at a final concentration of 10 μM for 24 h. Then, toxic stimuli of 50 µM of glutamate was added to the wells. After 20 h, cell viability was measured by the MTT procedure. Here, the reference protective compound used was memantine (30 nM)."}, "VGCC": {"system": "VGCC", "assay": "Blockade of 70 mM K+-evoked cytosolic Ca2+ elevation (Fluo-4/AM) in SH-SY5Y cells", "format": "cell-based", "protocol": "as §1\n(§3) To assess the blocking effect of compounds on the VGCC, we used SH-SY5Y cells charged with the Ca^2+-sensitive fluorescent dye Fluo-4/AM at 10 μM in Krebs-HEPES buffer, following a protocol recently described. Compounds were incubated at the desired concentrations (1, 3, 10, and 30 μM). The Ca^2+ entry was favored by addition of K^+ 70 mM to the extracellular medium. To evaluate the blocking effect of compounds on NMDA receptors, we have followed a protocol recently reported by our research group. Rat cortical neurons were charged with Fluo-4/AM at 3 μM in Krebs-HEPES buffer and compounds incubated at same concentrations than before. To stimulate Ca^2+ entry through the NMDA-sensitive glutamate receptors, NMDA was applied at 10 μM. In both cases, fluorescence oscillations as result of the [Ca^2+]c increases were real-time monitored in a multi-well fluorescence plate reader (FluoStar Optima, BMG, Germany), with excitation and emission wavelengths of 485 and 520 nm, respectively. Data were calculated as fluorescence increase (ΔF), according to the formula: ΔF=Fx−Fo /Fmax−Fmin where Fx is the maximum fluorescence obtained after Ca^2+ entry stimulation, F0 is the averaged fluorescence before, Fmax is the maximum fluorescence of the well obtained by treating cells with 5% Triton X-100, and the Fmin is the minimum fluorescence of well obtained by adding MnCl2 1 M to the previously Triton-lysed cells. The ΔF data were normalized respect to the control (ΔFc). Data are presented as percentage of blockade (100% ΔF) at the concentration of 10 μM, or as IC50, i.e., the concentration of compound capable of halving the ΔFc (%ΔF = 50)."}, "NMDA receptors": {"system": "NMDA receptors", "assay": "Blockade of NMDA-evoked cytosolic Ca2+ elevation (Fluo-4/AM) in rat cortical neurons", "format": "cell-based", "conditions": "for IC50: rat cortical embryonic neurons, NMDA 10 μM, compounds 1 to 30 μM, read-out: IC50, NMDA-evoked [Ca2+]c elevation", "protocol": "as §1\nas §3, with “To evaluate the blocking effect of compounds on NMDA receptors, we have followed a protocol recently reported by our research group.” left out, “(ΔFc).” for “(ΔFc). Data are presented as percentage of blockade (100% ΔF) at the concentration of 10 μM, or as IC50, i.e., the concentration of compound capable of halving the ΔFc (%ΔF = 50).”"}, "rat cortical neurons": {"system": "rat cortical neurons", "assay": "Neuroprotection against glutamate 50 μM, MTT, rat cortical neurons", "format": "cell-based", "conditions": "compounds 10 μM", "protocol": "as §1, §2"}, "SH-SY5Y cells [3]": {"system": "SH-SY5Y cells", "assay": "Per se toxicity, MTT reduction, SH-SY5Y cells", "format": "cell-based", "protocol": "as §1\nThe per se toxicity of the new synthetized compounds was assessed in both cell cultures by the method of MTT reduction. […] The viability of cultures was measured 20 h later, following a procedure recently described. […]"}, "[4]": {"assay": "Solubility as observed during testing", "format": "physicochemical"}}, "note": "Read-outs that look alike come from different tables or passages of the source."}
{"smiles": "CC(C)c1ccccc1C1SCC(=O)Nc2ccc(N(C)C)cc21", "note": "(stereo not drawn) [compound 21, 7-Dimethylamino-5-(2′-isopropylphenyl)-3,5-dihydro-4,1-benzothiazepin-2-(1H)-one]", "values": [{"measurement": "melting point", "value": "108 to 112", "unit": "°C"}, {"measurement": "Papp at 4 h, 100 µM", "setting": "[1]", "value": "> 4", "unit": "×10⁻⁶ cm/s"}, {"measurement": "Protection against R/O-induced oxidative stress (in words)", "setting": "SH-SY5Y cells [2]", "value": "clear trend to protect against oxidative stress"}, {"measurement": "Decrease of K+-evoked Ca2+ signaling compared with nifedipine", "setting": "VGCC; compounds 10 μM, nifedipine 10 μM", "value": "in a similar manner or even better than the reference compound nifedipine"}, {"measurement": "IC50", "setting": "VGCC; read-out: IC50, concentration halving the 70 mM K+-evoked Ca2+ elevation, compounds 1 to 30 μM, Fluo-4/AM", "value": 5.4, "unit": "µM"}, {"measurement": "IC50", "setting": "NMDA receptors", "value": 6.2, "unit": "µM"}, {"measurement": "Mitigation of the NMDA-elicited Ca2+ increase compared with memantine", "setting": "NMDA receptors; rat cortical neurons, compounds 10 μM, memantine 10 μM", "value": "noticeable mitigation of the NMDA-elicited Ca^2+ increase, even higher than that exerted by the reference compound memantine"}, {"measurement": "Protection against glutamate-elicited neurotoxicity (in words)", "setting": "rat cortical neurons", "value": "statistically significant dissipation of the glutamate-elicited neurotoxicity"}]}
{"smiles": "CC(C)c1cccc(C2SCC(=O)Nc3ccc(Cl)cc32)c1", "note": "(stereo not drawn) [compound 13, 7-Chloro-5-(3′-isopropylphenyl)-3,5-dihydro-4,1-benzothiazepin-2-(1H)-one]", "values": [{"measurement": "melting point", "value": "218 to 220", "unit": "°C"}, {"measurement": "Effect on cell viability of SH-SY5Y cells at 30 μM", "setting": "SH-SY5Y cells [3]; 30 μM", "value": "remarkable cytotoxic profile"}]}
{"smiles": "O=C1CSC(c2ccccc2)c2cnccc2N1", "note": "(stereo not drawn) [compound 38, 5-Phenyl-3,5-dihydropyrido[4,3-e][1,4]thiazepin-2-(1H)-one]", "values": [{"measurement": "melting point", "value": "138 to 143", "unit": "°C"}, {"measurement": "Protection against R/O-induced oxidative stress (in words)", "setting": "SH-SY5Y cells [2]", "value": "neuroprotective profile against oxidative stress"}, {"measurement": "IC50", "setting": "VGCC; compounds 1 to 30 μM, Fluo-4/AM, read-out: IC50, concentration halving the 70 mM K+-evoked Ca2+ elevation", "value": 28.5, "unit": "µM"}, {"measurement": "IC50", "setting": "NMDA receptors", "value": "> 30", "unit": "µM"}, {"measurement": "Protection against glutamate-elicited neurotoxicity (in words)", "setting": "rat cortical neurons", "value": "nicely recovered cell viability"}]}
{"smiles": "CC(C)c1ccc(C2SCC(=O)Nc3ccc(Cl)cc32)cc1", "note": "(stereo not drawn) [compound 12, 7-Chloro-5-(4′-isopropylphenyl)-3,5-dihydro-4,1-benzothiazepin-2-(1H)-one]", "values": [{"measurement": "melting point", "value": "240 to 243", "unit": "°C"}, {"measurement": "Solubility (observation)", "setting": "[4]", "value": "some solubility problems were appreciated"}, {"measurement": "Effect on cell viability of SH-SY5Y cells (per se toxicity)", "setting": "SH-SY5Y cells [3]; compounds at 1, 3, 10 and 30 μM", "value": "did not produce a dramatic loss of cell viability"}]}
